The results in this text go back to ChEMBL document CHEMBL4425194, “Synthesis and biological evaluation of novel imidazol-1-ylacetic acid derivatives as non-brain penetrant bombesin receptor subtype-3 (BRS-3) agonists” (Bioorg Med Chem Lett, 2016).

In brackets after ≈: the same amount, converted by molar mass. Activity calls are given as the source filed them. The calls are words filed in the database; no cut-off is given here.

Series [1] deals with T1, Bombesin receptor subtype-3 (Mus musculus, UniProt O54798).
T1 sequence (O54798 whole entry): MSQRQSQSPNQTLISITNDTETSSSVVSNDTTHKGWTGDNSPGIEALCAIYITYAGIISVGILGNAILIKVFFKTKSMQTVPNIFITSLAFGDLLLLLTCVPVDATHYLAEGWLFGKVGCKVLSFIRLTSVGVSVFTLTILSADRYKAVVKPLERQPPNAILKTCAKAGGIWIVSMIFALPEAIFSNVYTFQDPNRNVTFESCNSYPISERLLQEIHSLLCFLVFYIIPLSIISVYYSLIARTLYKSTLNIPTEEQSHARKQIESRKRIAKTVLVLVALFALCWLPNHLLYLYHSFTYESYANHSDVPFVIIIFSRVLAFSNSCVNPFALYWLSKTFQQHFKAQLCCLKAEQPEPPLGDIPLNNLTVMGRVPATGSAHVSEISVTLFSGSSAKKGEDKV
As to the kind of experiment: Agonist activity at mouse BRS3 expressed in CHOK1 cells measured after 1 hrs by IP-One HTRF assay. In kind it is cell-based.

For series [2], the target named is T2, Bombesin receptor subtype-3 (Homo sapiens, UniProt P32247).
T2 sequence (P32247 whole entry): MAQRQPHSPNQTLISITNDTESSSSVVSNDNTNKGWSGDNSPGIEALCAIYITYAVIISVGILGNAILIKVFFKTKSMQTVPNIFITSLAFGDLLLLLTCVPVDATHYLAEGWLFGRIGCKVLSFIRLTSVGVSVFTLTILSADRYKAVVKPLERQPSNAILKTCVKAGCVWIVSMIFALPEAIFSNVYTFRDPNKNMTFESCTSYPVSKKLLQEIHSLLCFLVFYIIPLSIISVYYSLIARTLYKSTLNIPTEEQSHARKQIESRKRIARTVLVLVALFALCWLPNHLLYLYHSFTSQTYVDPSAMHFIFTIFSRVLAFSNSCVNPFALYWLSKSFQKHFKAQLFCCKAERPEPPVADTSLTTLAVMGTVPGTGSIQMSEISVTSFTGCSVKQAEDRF
The experiment in a line: Agonist activity at human BRS3 expressed in CHOK1 cells measured after 1 hrs by IP-One HTRF assay. The series is classed as cell-based. A general note: Time-resolved FRET reads energy transfer from a long-lived donor to a nearby acceptor.

The test system of series [3] is Mus musculus. As to the kind of experiment: Antiobesity activity in C57BL/6N mouse assessed as reduction in food intake at 30 mg/kg, po measured after 1 hr. In kind it is functional. The arrangement: scale not given: the % may be the effect or the level left.
A short description of series [4]: Fraction unbound in mouse plasma. The series is classed as ADME, cell-free.
Series [5] can be described thus: Cmax in halothane anesthetized dog not showing increase in heart rate at 3 mg/kg/ml, iv measured after 30 mins. The series is classed as ADME, organism-based, Canis lupus familiaris. Further details: dose 3 mg/kg, route intravenous. The conditions noted are these: in vivo.
A short description of series [6]: Cardiotoxicity in halothane anesthetized dog assessed as effect on blood pressure at 3 mg/kg/ml, iv measured after 30 mins. The series is classed as toxicity, organism-based, Canis lupus familiaris. The conditions noted are these: in vivo, 0.5 h.
A short description of series [7]: Solubility of the compound in JP2 at pH 6.8. The series is classed as physicochemical. The conditions noted are these: JP2, pH 6.8.
Series [8] is described as follows: Plasma concentration in halothane anesthetized dog at 3 mg/kg/ml, iv measured after 30 mins. The series is classed as ADME, organism-based, Canis lupus familiaris.
The species named for series [9] is Mus musculus. The experiment in a line: Antiobesity activity in BRS3-deficient C57BL/6N mouse assessed as anorectic effect measured after 1 hr. The series is classed as functional, organism-based.
A short description of series [10]: Plasma concentration in halothane anesthetized dog at 3 mg/kg/ml, iv measured after 60 mins. The series is classed as ADME, organism-based, Canis lupus familiaris.
A short description of series [11]: Drug uptake in mouse plasma assessed as ratio of active compound to metabolite at 3 mg/kg, iv administered as infusion measured after 30 or 60 mins. The series is classed as ADME, organism-based. The conditions noted are these: in vivo, 1 h, pooled result: one value given for 2 cell lines, strains, targets or settings.
Series [12] can be described thus: Solubility of the compound in JP1 at pH 1.2. In kind it is physicochemical. The note with it: JP1, pH 1.2.
Series [13] is described as follows: Octanol-water distribution coefficient, log D of the compound in PBS buffer at pH 7.4. In kind it is physicochemical.
Series [14] in a line: Cmax in halothane anesthetized dog showing 100.9% increase in heart rate at 3 mg/kg/ml, iv measured after 30 mins. In kind it is ADME, organism-based, Canis lupus familiaris. The arrangement: dose 3 mg/kg, route intravenous. The note with it: in vivo.
The test system of series [15] is Mus musculus. The experiment in a line: Antiobesity activity in po dosed C57BL/6N mouse assessed as anorectic effect measured after 1 hr. The series is classed as functional, organism-based.
Series [16] in a line: Drug uptake in mouse brain assessed as active compound level at 3 mg/kg, iv administered as infusion measured after 30 or 60 mins. In kind it is ADME, organism-based. The note with it: 1 h.
Series [17] in a line: Drug uptake in mouse brain assessed as active compound level at 10 mg/kg, iv administered as infusion measured after 30 or 60 mins. The series is classed as ADME, organism-based. The conditions noted are these: 1 h.
Series [18] in a line: Drug uptake in mouse brain assessed as metabolite level at 10 mg/kg, iv administered as infusion measured after 30 or 60 mins. The note with it: 1 h. The series is classed as ADME, organism-based.
The nature of series [19]: Drug uptake in mouse brain assessed as metabolite level at 3 mg/kg, iv administered as infusion measured after 30 or 60 mins. In kind it is ADME, organism-based. The note with it: 1 h.

As a reminder, the EC50 is the concentration giving half of the maximal effect. One may read the fraction unbound as the share of the substance not bound to proteins or other matrix. By Cmax is commonly meant the peak of the concentration-time curve. A word on the solubility: it is the dissolved amount per volume that the medium holds. For orientation: logD means lipophilicity at a set pH, counting ionised and neutral species.

Consider `COC(=O)c1ccccc1-c1ccc(CCc2ncc(CC(C)(C)C)n2CC(=O)O)cc1`, for which the EC50 turned out to be 694 nM in series [1] and 968 nM in series [2].
On to `COC(=O)c1c(F)cccc1-c1ccc(CCc2ncc(CC(C)(C)C)n2CC(=O)O)cc1`, for which the Activity in the series with Mus musculus [3] was 20%; in series [6], “Non-Toxic”; in the series on Mus musculus [15] it was “Dose-dependent effect”. The fraction unbound in series [4] was 0.0167. Further, the Cmax came to 44.3 µM in series [5] and 16.8 µM in [14]. Further, the solubility stood at 370 µg/mL (≈ 818 µM) in series [7] and 730 µg/mL (≈ 1610 µM) in series [12]. Besides, the concentration at 0.5 h in [8] worked out at 28.2 µM. For the same compound, the result in the series listed under Mus musculus [9] was inactive. The same compound returned a concentration at 1 h in [10] of 1140 nM. Also, the EC50 came to 44 nM in series [1] and 39 nM in series [2]. Moreover, the Ratio in series [11] worked out at 1.31. In series [13], this compound registered a logD of 2.
With `CC(C)(C)Cc1cnc(CCc2ccc(-c3ccccc3C(=O)O)cc2)n1CC(=O)O`, the concentration giving a half-maximal response (EC50) in [1] was 1270 nM; in series [2] it was 897 nM.
The corresponding values for `COC(=O)c1c(F)cccc1-c1ccc(CCc2ncc(CC(C)(C)C)n2CCO)cc1` are 24 nM and 21 nM.
Turning to `COC(=O)C(C)(C)Oc1ccc(CCc2ncc(CC(C)(C)C)[nH]2)cc1`, the EC50 is 621 nM in [1] and greater than 10000 nM in series [2].
Take `COC(=O)c1ccccc1-c1ccc(CCc2ncc(CC(C)(C)C)[nH]2)cc1`: the half-maximal effective concentration (EC50) in [1] stood at 498 nM; in series [2], 644 nM.
As for `CC(C)(C)Cc1cnc(CCc2ccc(-c3cccc(F)c3C(=O)O)cc2)n1CCNS(C)(=O)=O`, the 50% effective concentration (EC50) came to 4 nM in series [1] and 2 nM in series [2].
The corresponding values for `CCC(C)(C)Cc1cnc(CCc2ccc(-c3ccccn3)cc2)n1CC(=O)O` are 26 nM and 42 nM.
The corresponding values for `COC(=O)c1ccccc1-c1ccc(CCCc2ncc(CC(C)(C)C)[nH]2)cc1` are greater than 10000 nM and greater than 10000 nM.
Regarding `COC(=O)c1c(F)cccc1-c1ccc(CCc2ncc(CC(C)(C)C)n2CCC(=O)O)cc1`, the Kp in series [16] and in series [17] was 0.02 in each case. In addition, the EC50 in [1] amounted to 3 nM; in series [2], 1 nM. Besides, the Ratio in [11] is given as 1.3.
For the compound `CC(C)(C)Cc1cnc(CCc2ccc(-c3cccc(F)c3C(=O)O)cc2)n1CCO`, the EC50 in series [1] was 2 nM; in [2], 3 nM.
For `CCC(C)(C)Cc1cn(CC(=O)O)c(CCc2ccc(-c3ccccn3)cc2)n1` the same measures were 1910 nM and 4080 nM.
Turning to `COC(=O)c1c(F)cccc1-c1ccc(CCc2ncc(CC(C)(C)C)n2CCNS(C)(=O)=O)cc1`, the Kp in [16], in series [18], in series [17] and in [19] was 0.02 in each case. In addition, the EC50 in [1] worked out at 7 nM; in series [2] it was 11 nM. For the same compound, the Ratio in series [11] amounted to 2.3.
As for `CC(C)(C)Cc1cnc(CCc2ccc(-c3cccc(F)c3C(=O)O)cc2)n1CCOc1cccc(O)c1`, the values for the EC50 in series [1] and in series [2] were 0.8 nM and 0.9 nM, respectively.
Regarding `COC(=O)C(C)(C)c1ccc(CCc2ncc(CC(C)(C)C)[nH]2)cc1`, the EC50 in series [1] was found to be 9910 nM; in series [2], 2230 nM.
For `CC(C)(C)Cc1cnc(CCc2ccc(-c3cccc(F)c3C(=O)O)cc2)n1CCC(=O)O` the same measures were 61 nM and 11 nM.
The corresponding values for `CC(C)(C)Cc1cnc(CCc2ccc(-c3cccc(F)c3C(=O)O)cc2)n1Cc1ccc(C(=O)O)cc1` are 13 nM and 12 nM.
With `CC(C)(C)Cc1cnc(CCc2ccc(-c3cccc(F)c3C(=O)O)cc2)n1CC(=O)O`, in series [4], the fraction unbound is 0.181. Moreover, the Cmax in series [5] worked out at 38.1 µM; in series [14] it was 4.2 µM. Also, the solubility in [7] and in series [12] was greater than 870 µg/mL in each case. The same compound had a concentration at 0.5 h in series [8] of 20.1 µM. Also, the concentration at 1 h in [10] amounted to 1090 nM. In addition, the EC50 in series [1] came out at 140 nM; in series [2] it was 69 nM. For the same compound, the logD in series [13] is less than -1.8.
Consider `COC(=O)c1c(F)cccc1-c1ccc(CCc2ncc(CC(C)(C)C)n2Cc2ccc(C(=O)O)cc2)cc1`, for which the results for the EC50 in [1] and in [2] were 5 nM and 3 nM, respectively.
Regarding `COC(=O)c1c(F)cccc1-c1ccc(CCc2ncc(CC(C)(C)C)n2CCOc2cccc(O)c2)cc1`, the Kp in [16] is 0.05; in series [18] it was 0.31; in [17], 0.05; in series [19], 0.31. The concentration for a half-maximal effect (EC50) in [1] came out at 25 nM; in series [2] it was 13 nM. Moreover, in series [11], the Ratio was 2.49.
